Here are results for 15 compounds from patent publication US8153626B2, “Substituted diazepine sulfonamides as bombesin receptor subtype-3 modulators” (Merck Sharp & Dohme Corp., priority 2006, dated 2012).

Structures are written as SMILES. pEC50, pIC50: −log10 of the molar value. Where two headings read alike, the source gives them in different places.

The target in test [1] is T1, human BRS3 (Homo sapiens, UniProt P32247).
T1 construct: expressed in transfected cells
T1 sequence (P32247 1-399): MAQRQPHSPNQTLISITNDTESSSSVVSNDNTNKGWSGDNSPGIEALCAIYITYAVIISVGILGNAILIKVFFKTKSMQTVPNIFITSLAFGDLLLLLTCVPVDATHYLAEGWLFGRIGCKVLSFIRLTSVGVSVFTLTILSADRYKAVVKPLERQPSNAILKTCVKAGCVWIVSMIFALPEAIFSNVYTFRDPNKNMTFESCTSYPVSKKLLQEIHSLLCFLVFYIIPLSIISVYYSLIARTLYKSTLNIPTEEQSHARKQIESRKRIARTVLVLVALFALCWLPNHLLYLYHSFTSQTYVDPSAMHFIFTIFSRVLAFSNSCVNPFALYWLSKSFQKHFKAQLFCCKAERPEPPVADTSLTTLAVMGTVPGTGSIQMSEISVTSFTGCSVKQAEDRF
The test can be described thus: [125I]-dY-peptide radioligand binding assay (filtration, membranes). The method, then: Dissociated cells were collected by centrifuging at 1000 rpm for 10 minutes. Cell pellets were resuspended and homogenized at 4° C. using a Polytron homogenizer (setting 40, 20 stokes) in approximately 10 mL membrane preparation buffer (10 mM Tris pH 7.4, 0.01 mM Pefabloc, 10 μM phosphoramidon and 40 μg/mL Bacitracin) per T175 flask. After centrifugation at 2200 rpm (1000×g) for 10 minutes at 4° C., the supernatant was transferred to a clean centrifuge tube and spun at 18,000 rpm (38,742×g) for 15 minutes. at 4° C.
The filters were washed five times with ice-cold washing buffer (1×PBS without Mg^++ and Ca^++). The radioactivity was determined by adding 30 μl of microscintillant/well after each plate was dried at room temperature overnight or placed at 50° C. for 1 hr.
A Packard Top Count was used to read the filter plates. The data in % inhibition of binding was plotted vs. the log molar concentration of receptor ligand (compound). The IC50 was reported as the inflection point of the resulting sigmoidal curve. […] The binding assays for the rat and mouse Bombesin Receptor Subtype 3 (BRS3) were performed in a similar fashion.

In test [2] the target is T1, human BRS3. The test is described as follows: Aequorin bioluminescent assay to measure intracellular Ca++ (HEK293AEQ cells). It is filed as cell-based. The settings on record: read-out: human BRS-3 EC50. The method, then:
HEK293/AEQ cell lines stably expressing either human, rat or mouse BRS3 cDNA were generated using standard cell biology techniques and were used for all functional assays and to prepare membranes for the rat BRS3 binding assay. […] The transfected cells were used to prepare membranes for the [^3H]-biphenyl binding assay and for the functional assays. The cells were maintained in culture under the same conditions used for the human and rat stable BRS3 HEK293AEQ cell lines. All cells were grown as attached monolayers to approximately 90% confluency in tissue culture flasks under the appropriate media in an incubator at 37° C. with 5% CO2. Cells were passed 1:3 to 1:5 twice a week depending on the rate of growth.
The same media (8 mL) containing 20 μM coelenterzine was added to the cells and incubated at 37° C. for 1 hr. The media was aspirated and the flasks rinsed with 6 mL ECB buffer (140 mM NaCl, 20 mM KCl, 20 mM HEPES, 5 mM glucose, 1 mM MgCl, 1 mM CaCl, 0.1 mg/mL BSA, pH 7.4). The cells were dissociated with a rubber-tipped scraper in 6 mL of fresh ECB buffer and collected by centrifugation at 2500 rpm for 5 minutes. The cell pellets were resuspended in ECB buffer to a concentration of 200,000 cells/mL and were either used right away or quickly frozen in liquid nitrogen for storage at −80° C. for up to six weeks.
The Aequorin assay itself was performed in 96-well format using a Wallac Microbeta luminometer equipped with microinjector module. Compounds in DMSO (0.5% final concentration) were titrated in the plates at 2× concentration in a volume of 0.1 mL ECB buffer. The cells (20,000 per well) were then injected in 0.1 mL ECB buffer and the bioluminescence monitored for 30 seconds. Alternatively, total bioluminescence was determined over 10 minutes. The bioluminescent readings were plotted vs. the log molar concentration of receptor ligand (compound). The EC50 for activation was reported as the inflection point of the resulting sigmoidal curve.

[3] abbreviates: Bombesin Subtype-3 Receptor Binding, method A, racemic mixture or the more potent enantiomer after HPLC separation, read-out: human BRS-3 IC50.
[4] abbreviates: Bombesin Subtype-3 Receptor agonism, method C, racemic mixture or the more potent enantiomer after HPLC separation.

As usually defined, the pIC50 is −log10 of the IC50, conventionally taken in molar units. A word on the pEC50: it is the EC50 on a negative log10 scale, so that one unit is a factor of ten. For the compound `CC(C)(C)c1ccc(S(=O)(=O)N2Cc3ccc(C(F)(F)F)nc3Nc3ccc(-c4noc(CO)n4)cc32)cc1` [Example 437, {3-[6-[(4-tert-Butylphenyl)sulfonyl]-2-(trifluoromethyl)-6,11-dihydro-5H-pyrido[2,3-b][1,5]benzodiazepin-8-yl]-1,2,4-oxadiazol-5-yl}methanol], the negative-log IC50 (pIC50) at human BRS3 [1] (setting [3]) is 8.39. Further, the pEC50 at human BRS3 [2] (setting [4]) is 6.92.

As to `CC(C)(C)c1ccc(S(=O)(=O)N2Cc3ccc(C(F)(F)F)nc3Nc3cccc(-c4noc(CO)n4)c32)cc1` (racemic) [Example 5, {3-[6-[(4-tert-Butylphenyl)sulfonyl]-2-(trifluoromethyl)-6,11-dihydro-5H-pyrido[2,3-b]-[1,5]benzodiazepin-7-yl]-1,2,4-oxadiazol-5-yl}methanol], at human BRS3 [1] (setting [3]), the negative logarithm of the IC50 (pIC50) was 9.12. The pEC50 on human BRS3 [2] (setting [4]) was 7.47.

For `O=S(=O)(c1ccc(C(F)(F)F)cc1)N1Cc2ccc(C(F)(F)F)nc2Nc2cccc(-c3noc(CO)n3)c21` (racemic) [Example 6, [3-(2-(Trifluoromethyl)-6-{[4-(trifluoromethyl)phenyl]sulfonyl}-6,11-dihydro-5H-pyrido[2,3-b]-[1,5]benzodiazepin-7-yl)-1,2,4-oxadiazol-5-yl]methanol], at human BRS3 [1] (setting [3]), the pIC50 is 8.19. Moreover, the pEC50 at human BRS3 [2] (setting [4]) is 7.28.

`CC(C)(O)c1nc(-c2cccc3c2N(S(=O)(=O)c2ccc(C4(C(F)(F)F)CC4)cc2)Cc2ccc(C(F)(F)F)nc2N3)no1` (racemic) [Example 4, 2-{3-[2-(Trifluoromethyl)-6-({4-[1-(trifluoromethyl)cyclopropyl]phenyl}sulfonyl)-6,11-dihydro-5H-pyrido[2,3-b][1,5]benzodiazepin-7-yl]-1,2,4-oxadiazol-5-yl}-2-propanol]: on human BRS3 [1] (setting [3]), the pIC50 was 8.48. Further, the pEC50 at human BRS3 [2] (setting [4]) is 6.86.

On to `CC(C)(O)c1nc(-c2cccc3c2N(S(=O)(=O)c2ccc(OC(F)(F)F)cc2)Cc2ccc(C(F)(F)F)nc2N3)no1` (racemic) [Example 1, 2-{3-[6-{[4-(Trifluoromethoxy)phenyl]sulfonyl}-2-(trifluoromethyl)-6,11-dihydro-5H-pyrido[2,3-b][1,5]benzodiazepin-7-yl]-1,2,4-oxadiazol-5-yl}propan-2-ol], for which the pIC50 at human BRS3 [1] was 8.44. For the same compound, the pEC50 at human BRS3 [2] (setting [4]) is 7.14.

`Cc1ccc2c(n1)N(S(=O)(=O)c1ccc(C(C)(C)C)cc1)Cc1ccc(C(F)(F)F)nc1N2` [Example 536]: the pIC50 on human BRS3 [1] (setting [3]) was 8.28. Moreover, the pEC50 on human BRS3 [2] (setting [4]) was 7.18.

Regarding `CC(C)(O)c1nc(C2(c3cccc4c3N(S(=O)(=O)c3ccc(OC(F)(F)F)cc3)Cc3ccc(C(F)(F)F)nc3N4)CCC2)no1` [Example 531, 2-(3-{1-[6-{[4-(Trifluoromethoxy)phenyl]sulfonyl}-2-(trifluoromethyl)-6,11-dihydro-5H-pyrido[2,3-b][1,5]benzodiazepin-7-yl]cyclobutyl}-1,2,4-oxadiazol-5-yl)propan-2-ol], the pIC50 at human BRS3 [1] (read-out: human BRS-3 IC50) is 9.19. At human BRS3 [2], the pEC50 is 7.03.

Regarding `CC(C)(O)c1nc(-c2cccc3c2N(S(=O)(=O)c2ccc(C(F)(F)F)cc2)Cc2ccc(C(F)(F)F)nc2N3)no1` (racemic) [Example 2, 2-[3-(2-(Trifluoromethyl)-6-{[4-(trifluoromethyl)phenyl]sulfonyl}-6,11-dihydro-5H-pyrido[2,3-b][1,5]benzodiazepin-7-yl)-1,2,4-oxadiazol-5-yl]propan-2-ol], the negative logarithm of the IC50 (pIC50) at human BRS3 [1] (setting [3]) was 8.08. Further, on human BRS3 [2] (setting [4]), the pEC50 was 6.80.

With `CC(C)(C(N)=O)c1cccc2c1N(S(=O)(=O)c1ccc(OC(F)(F)F)cc1)Cc1ccc(C(F)(F)F)nc1N2` [Example 533, 2-Methyl-2-[6-{[4-(trifluoromethoxy)phenyl]sulfonyl}-2-(trifluoromethyl)-6,11-dihydro-5H-pyrido[2,3-b][1,5]-benzodiazepin-7-yl]propanamide], on human BRS3 [1] (setting [3]), the pIC50 is 8.66. Besides, the pEC50 at human BRS3 [2] (setting [4]) was 7.80.

As for `CC(C)(C)c1ccc(S(=O)(=O)N2Cc3ccc(C(F)(F)F)nc3Nc3ccncc32)cc1` [Example 464, 6-[(4-tert-Butylphenyl)sulfonyl]-2-(trifluoromethyl)-6,11-dihydro-5H-dipyrido[2,3-e:3′,4′-b][1,4]diazepine], the pIC50 on human BRS3 [1] (setting [3]) is 7.42. For the same compound, the negative-log EC50 (pEC50) at human BRS3 [2] (setting [4]) is 6.71.

The compound `CC(C)(C)c1ccc(S(=O)(=O)N2Cc3ccc(C(F)(F)F)nc3Nc3ccc4ncccc4c32)cc1` [Example 316, 13-[(4-tert-Butylphenyl)sulfonyl]-9-(trifluoromethyl)-12,13-dihydro-7H-pyrido[2′,3′:5,6][1,4]diazepino[2,3-ƒ]quinoline] gave a pIC50 at human BRS3 [1] of 9.19. Also, on human BRS3 [2] (setting [4]), the pEC50 was 7.32.

As to `O=S(=O)(c1ccc(OC(F)(F)F)cc1)N1Cc2ccc(C(F)(F)F)nc2Nc2cccc(-c3noc(CO)n3)c21` (racemic) [Example 7, {3-[6-{[4-(Trifluoromethoxy)phenyl]sulfonyl}-2-(trifluoromethyl)-6,11-dihydro-5H-pyrido[2,3-b]-[1,5]benzodiazepin-7-yl]-1,2,4-oxadiazol-5-yl}methanol], on human BRS3 [1] (setting [3]), the pIC50 is 8.54. For the same compound, the pEC50 at human BRS3 [2] (setting [4]) was 7.48.

For the compound `CC(C)(C)c1ccc(S(=O)(=O)N2Cc3ccc(C(F)(F)F)nc3Nc3ccc(C(C)(C)C(=O)O)cc32)cc1` [Example 374, 2-[6-[(4-tert-Butylphenyl)sulfonyl]-2-(trifluoromethyl)-6,11-dihydro-5H-pyrido[2,3-b][1,5]benzodiazepin-8-yl]-2-methylpropanoic acid], the pIC50 at human BRS3 [1] (setting [3]) is 8.31. On human BRS3 [2] (setting [4]), the pEC50 was 6.89.

Regarding `Cc1ccc2c(c1C)N(S(=O)(=O)c1ccc(C(C)(C)C)cc1)Cc1ccc(C(F)(F)F)nc1N2` (racemic) [Example 251, 6-[(4-tert-Butylphenyl)sulfonyl]-7,8-dimethyl-2-(trifluoromethyl)-6,11-dihydro-5H-pyrido[2,3-b][1,5]benzodiazepine], the pIC50 on human BRS3 [1] was 9.00. The pEC50 on human BRS3 [2] (setting [4]) is 7.00.

As for `CC(C)(C)c1ccc(S(=O)(=O)N2Cc3ccc(C(F)(F)F)nc3Nc3cccc(-c4noc(C(C)(C)O)n4)c32)cc1` (racemic) [Example 3, 2-{3-[6-[(4-tert-Butylphenyl)sulfonyl]-2-(trifluoromethyl)-6,11-dihydro-5H-pyrido[2,3-b][1,5]benzodiazepin-7-yl]-1,2,4-oxadiazol-5-yl}propan-2-ol], the pIC50 at human BRS3 [1] (setting [3]) is 8.72. At human BRS3 [2] (setting [4]), the pEC50 is 7.20.
